Assay results taken from patent US8324267B2, “Kinase inhibitors and the use thereof” (Forschungzentrum Karlsruhe GmbH, priority 2001, dated 2012).

Assays:
[1] = target: VEGFR-3 (Homo sapiens, UniProt P35916); assay: Ligand-induced autophosphorylation in VEGFR-3-expressing PAE cells (immunoprecipitation, Western blot); type: cell-based; details: for inhibition of ligand-induced autophosphorylation of VEGFR-3: PAE/VEGFR-3 cells, VEGF-C stimulated, 0.5, 5 or 50 μM, FIG. 1
Protocol: VEGFR-2- and VEGFR-3-expressing PAE cells (pig aorta endothel cells) were incubated with 0.5 μM, 5 μM or 50 μM of the appropriate test compound. The cells were then stimulated with VEGF (VEGFR-2) or VEGF-C (VEGFR-3) or without growth factor as negative control. The cells were harvested after 15 min and immunoprecipitated with VEGFR-2 or VEGFR-3. The immunoprecipitates were blotted after electrophoresis and investigated with anti-phosphotyrosine antibody. The blots were detached and investigated with VEGFR-2 or VEGFR-3 antibody to check the loading.
PAE/VEGFR-2 or PAE/VEGFR-3 were seeded in 15 cm tissue culture tissues and cultivated to 50% confluence. The cells were then starved in serum-free medium (with 0.2% BSA) for 16-24 h (PAE/VEGFR-3) or 72 h […]. After preincubation with 5 ml of 1 mM serum-free medium (1 mM Na3VO4) and various inhibitor concentrations for 30-60 min, the cells were stimulated at 37° C. for 5 min (VEGFR-3) or 8 min (VEGFR-2). The cells were then rapidly washed twice with ice-cold PBS (with 1 mM Na3VO4) and lysed with ice-cold modified RIPA buffer (30 mM Tris-HCl, pH 7.4, 150 mM NaCl, 1 mM EDTA, 0.5% (v/v) Triton X100, 0.5% (w/v) sodium deoxycholate, 10 mM NaF) freshly prepared with 1 mM PMSF, 0.1 U/ml aprotinin, 10 ng/ml leupeptin and 5 mM Na3VO4. The cells were harvested from the plate with the aid of a rubber policeman and collected in centrifuge tubes on ice. The lysates were solubilized by forcing through a syringe with a 25 G needle, and were centrifuged at 4° C./13 000 rpm for 15 min to remove insoluble constituents.
The clear lysates were incubated with 4 μg of anti-VEGFR-2 (C-1158, Santa Cruz) or […] at 4° C. overnight.
The receptor-antibody complex was precipitated by adding 30 μl of protein A-Sepharose (Amersham)/tube and incubating at 4° C. for a further 2 hours.
The Sepharose were then centrifuged at 4° C. for 1 min and washed three times with cold washing buffer (30 mM Tris-HCl, pH 7.4, 150 mM NaCl, 1 mM EDTA, 0.5% (v/v) Triton X100, 0.5% (w/v) sodium deoxycholate, 10 mM NaF) freshly prepared with 1 mM PMSF, 0.1 U/ml aprotinin, 10 ng/ml leupeptin and 5 mM Na3VO4. The remainder of the washing buffer was removed by aspiration through a syringe provided with a 27 G needle. The Sepharose beads were resuspended in 50 μl of SDS loading buffer, boiled and loaded onto a 6% […] gel. After the electrophoretic fractionation, the proteins were fixed on an appropriate membrane by Western blotting. The blots were investigated first with the aid of an anti-phosphotyrosine antibody (RC20:HRPO, Becton Dickinson) and then the first antibody was removed again in order to investigate the blot for the protein loading with specific anti-receptor antibodies. […]

[2] = tested on: Human endothelial cells (HDMEC); assay: Apoptosis, Cell Death Detection ELISA (nucleosome ELISA); type: cell-based; details: 24 h, FIG. 5
Protocol: Human endothelial cells (HDMEC) and rat pancreatic tumor cells (1AS) were resuspended (10^5 cells/ml). 50 μl of cell suspension were seeded in 96-well cell culture plates and incubated at 37° C. for 24 h. The cells were then incubated with the stated concentrations of the various inhibitors for a further 24 h. The pro-apoptotic effect of the compounds was determined using the Cell Death Detection ELISA^plus kit (Roche Diagnostics GmbH, Mannheim) in accordance with the manufacturer's statements. The kit contains a photometric enzyme immunoassay for qualitative and quantitative in vitro determination of cytoplasmic histone-associated DNA fragments (mono- and oligo-nucleosomes) released through active cell death (apoptosis). […] The measurements relative to the untreated cells are plotted against the inhibitor concentration.
FIG. 5: Nucleosome ELISA test (Cell Death Detection ELISA). The extent of dead cells of the respective cell line is depicted (as relative absorption at 405 nm) in relation to the use of the inhibitors MAE87, MAE106 and MAZ51 and MAZ51-2.

[3] = tested on: 1AS cells; assay: Growth of subcutaneous 1AS carcinomas in BDX rats; type: in vivo, rat; details: 1AS cells s.c., 4-5 mg/kg each day in DMSO, FIG. 7
Protocol: 1AS cells (5×10^5) were injected subcutaneously into 2 groups of BDX rats (8 rats per group). One group was subsequently injected with 100 μl of DMSO/animal per day up to the end of the experiment. The other group was injected with 100 μl of MAZ51 (10 mg/ml in DMSO)/animal, equivalent to 4-5 mg/kg, each day. The tumor volume was measured normally measured regularly after the injection of the tumor cells.
FIG. 7: Depiction of the tumor volume as a function of the number of days after tumor cell injection depending on the treatment of the 1AS tumor cells with MAZ51.

[4] = tested on: MT450 rat mammary carcinoma cells; assay: Growth of subcutaneous MT450 mammary carcinomas in Wistar Furth rats; type: in vivo; details: MT450 cells s.c., 8 mg/kg/day intraperitoneally in DMSO, FIG. 8
Protocol: MT450 rat mammary carcinoma cells were injected subcutaneously into Wistar Furth rats. Treatment with the active substance MAZ51 at 8 mg/kg/day in 100% DMSO or solvent control (100% DMSO) was started the day after injection of the tumor cells. MAZ51 or only solvent was injected intraperitoneally each day. Each test group comprised 8 animals. The tumors were measured every 4-5 days.
FIG. 8: Depiction of the tumor volume as a function of the number of days after tumor cell injection depending on treatment of the MT450 tumor cells with MAZ51 and a DMSO solution (negative control).

Chain of VEGFR-3 (P35916 25-1363): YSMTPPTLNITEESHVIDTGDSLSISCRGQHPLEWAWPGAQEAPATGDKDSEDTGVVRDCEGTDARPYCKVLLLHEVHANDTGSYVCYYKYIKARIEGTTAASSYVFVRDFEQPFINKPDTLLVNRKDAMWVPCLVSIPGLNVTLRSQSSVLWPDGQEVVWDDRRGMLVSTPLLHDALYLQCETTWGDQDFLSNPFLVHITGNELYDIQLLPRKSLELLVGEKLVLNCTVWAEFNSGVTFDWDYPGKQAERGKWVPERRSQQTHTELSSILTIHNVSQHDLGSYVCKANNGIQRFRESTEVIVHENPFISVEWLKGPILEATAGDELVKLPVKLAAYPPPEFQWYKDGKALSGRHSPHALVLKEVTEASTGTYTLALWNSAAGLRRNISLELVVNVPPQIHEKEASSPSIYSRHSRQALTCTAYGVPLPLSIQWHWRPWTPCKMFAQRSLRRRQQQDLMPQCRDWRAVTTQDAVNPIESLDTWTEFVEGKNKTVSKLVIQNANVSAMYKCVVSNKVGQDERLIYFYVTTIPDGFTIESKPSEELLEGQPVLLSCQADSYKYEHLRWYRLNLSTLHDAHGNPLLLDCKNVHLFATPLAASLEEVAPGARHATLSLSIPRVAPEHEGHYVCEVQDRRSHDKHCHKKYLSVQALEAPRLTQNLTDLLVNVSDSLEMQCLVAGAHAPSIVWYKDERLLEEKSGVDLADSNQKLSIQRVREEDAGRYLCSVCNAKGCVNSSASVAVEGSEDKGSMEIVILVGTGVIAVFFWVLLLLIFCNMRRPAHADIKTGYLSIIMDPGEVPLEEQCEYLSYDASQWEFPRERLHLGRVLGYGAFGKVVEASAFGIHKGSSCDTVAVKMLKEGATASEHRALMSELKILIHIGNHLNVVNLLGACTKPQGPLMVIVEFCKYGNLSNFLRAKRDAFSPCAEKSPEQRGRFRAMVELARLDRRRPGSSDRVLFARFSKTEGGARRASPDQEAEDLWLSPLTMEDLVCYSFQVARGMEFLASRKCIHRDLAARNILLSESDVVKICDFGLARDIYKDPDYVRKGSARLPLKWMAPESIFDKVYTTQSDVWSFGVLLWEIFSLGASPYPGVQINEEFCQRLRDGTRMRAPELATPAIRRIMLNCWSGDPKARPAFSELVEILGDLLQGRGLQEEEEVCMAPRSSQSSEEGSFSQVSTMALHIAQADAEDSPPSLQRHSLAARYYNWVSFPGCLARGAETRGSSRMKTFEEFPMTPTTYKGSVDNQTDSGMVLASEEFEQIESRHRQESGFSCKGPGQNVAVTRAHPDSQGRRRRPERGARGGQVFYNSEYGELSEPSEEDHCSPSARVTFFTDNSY

| SMILES | inhibition of ligand-induced autophosphorylation of VEGFR-3 [1] | induction of apoptosis (relative absorption at 405 nm) [2] | selectivity of inhibition of autophosphorylation, VEGFR-3 versus VEGFR-2 ([1]; 5 μM, PAE cells) | inhibition of tumor growth (tumor volume) [3] | inhibition of tumor growth (tumor volume) [4] |
| --- | --- | --- | --- | --- | --- |
| O=C1Nc2ccccc2C1=Cc1ccc(O)cc1O [MAE87, 3-(2,4-Dihydroxybenzylidene)-1,3-dihydroindol-2-one] | Inhibit the Ligand-Induced Autophosphorylation | Induced Apoptosis |  |  |  |
| COc1ccc(C=C2C(=O)Nc3ccccc32)cc1F [MAE106, 3-(3-Fluoro-4-methoxybenzylidene)-1,3-dihydroindole-2-one] | Inhibit the Ligand-Induced Autophosphorylation | Induced Apoptosis |  |  |  |
| CN(C)c1ccc(C=C2C(=O)Nc3ccccc32)c2ccccc12 [MAZ51, 3-(4-Dimethylaminonaphthalen-1-ylmethylene)-1,3-dihydroindol-2-one] | Inhibit the Ligand-Induced Autophosphorylation | potent activator of apoptosis | selectively inhibits VEGFR-3 | considerably inhibited | inhibited in vivo |
